# Reference: patent publication US4581366A, “Aldose reductase inhibition by spiro indoline derivatives” (Imperial Chemical Industries PLC, priority 1983, dated 1986)
# Experiments:
# [1] = tested on: aldose reductase; experiment: in vivo aldose reductase inhibition in streptozotocin-diabetic rats (residual sorbitol in sciatic nerve); set-up: species or system rat; conditions: dosed daily for 2-5 days, 2-4 hours after final dose
# Protocol: Thus, rats are made diabetic (as evidenced by severe glucosuria being present) by dosing with streptozotocin. The animals are then dosed daily with the test compound for 2-5 days. The animals are then killed 2-4 hours after the final dose and the eye lenses and/or sciatic nerves are removed. After a standard work-up procedure the residual sorbitol levels in each tissue are determined by gas liquid chromatography after conversion to the polytrimethysilyl derivatives. Inhibition of aldose reductase in vivo is then assessed by comparing the residual sorbitol levels in tissues from the dosed diabetic group of rats with those of an undosed group of diabetic rats and an undosed, normal group of rats.
# (§1) In the above in vivo test, an effective dose (ED) may be defined as the oral dose at which the residual sorbitol level in the sciatic nerve is reduced to a level similar to that in the sciatic nerve of normal, undosed rats. In this test the novel compound of formula I has an ED of approximately 1.76 mg/kg. as the racemic form and of approximately 0.62 mg/kg. as the dextrorotatory, optically active form.
# [2] = target: T1, aldose reductase (Bos taurus, UniProt P16116); experiment: in vitro inhibition of partially purified aldose reductase from bovine lenses (reduction of glucose to sorbitol, spectrophotometric); assay type: biochemical; conditions: read-out: IC50 (concentration necessary to inhibit to the extent of 50% the enzyme's ability to reduce glucose to sorbitol)
# T1 construct: partially purified aldose reductase is isolated in known manner from bovine lenses; from tissue; host or cells: bovine lens
# Protocol: Thus, partially purified aldose reductase is isolated in known manner from bovine lenses. The percentage inhibition of this enzyme's ability in vitro to reduce aldoses to polyhydric alcohols, and particularly to reduce glucose to sorbitol, caused by a test compound is then determined using standard spectrophotometric methods.
# as §1
smiles,measurement,setting,value
"O=C1NC(=O)C2(N1)C(=O)N(Cc1ccc(Br)cc1F)c1c(Cl)cccc12 (racemic) [compound of formula I, racemic form, (±)-1'-(4-bromo-2-fluorobenzyl)-7'-chloro-spiro[imidazolidine-4,3'-indoline]-2,2',5-trione]","effective dose (ED): oral dose at which the residual sorbitol level in the sciatic nerve is reduced to a level similar to that of normal, undosed rats",[1],approximately 1.76 mg/kg
same,IC50,[2],~0.024 µM
"O=C1NC(=O)C2(N1)C(=O)N(Cc1ccc(Br)cc1F)c1c(Cl)cccc12 (single isomer, unassigned; (+)) [(+)-1'-(4-bromo-2-fluorobenzyl)-7'-chloro-spiro[imidazolidine-4,3'-indoline]-2,2',5-trione]","effective dose (ED): oral dose at which the residual sorbitol level in the sciatic nerve is reduced to a level similar to that of normal, undosed rats",[1],approximately 0.62 mg/kg
same,IC50,[2],~0.0098 µM
